From PubChem BioAssay (NCI)
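GI50 is the concentration that inhibits growth by half. TGI is the concentration that stops growth completely.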

What was measured:
Experiment in all cases: NCI-60 cell line screen, 384-well format
[1] = system: HCC-2998 colon
[2] = system: BT-549 breast
[3] = system: UACC-257 melanoma
[4] = system: SNB-75 CNS
[5] = system: ACHN renal
[6] = system: SF-295 CNS
[7] = system: SK-MEL-2 melanoma
[8] = system: SF-539 CNS
[9] = system: HOP-92 NSCLC
[10] = system: NCI/ADR-RES ovarian
[11] = system: K-562 leukemia
[12] = system: 786-0 renal
[13] = system: SF-268 CNS
[14] = system: OVCAR-3 ovarian
[15] = system: RXF 393 renal
[16] = system: SK-OV-3 ovarian
[17] = system: MOLT-4 leukemia
[18] = system: KM12 colon
[19] = system: SK-MEL-28 melanoma
[20] = system: RPMI-8226 leukemia
[21] = system: UACC-62 melanoma
[22] = system: NCI-H226 lung
[23] = system: NCI-H460 NSCLC
[24] = system: CCRF-CEM leukemia
[25] = system: IGROV1 ovarian
[26] = system: NCI-H322M lung
[27] = system: M14 melanoma
[28] = system: OVCAR-8 ovarian
[29] = system: MCF7 breast
[30] = system: U251 glioblastoma
[31] = system: HL-60(TB) leukemia
[32] = system: HT29 colon
[33] = system: MDA-MB-231 breast
[34] = system: MDA-MB-435 melanoma
[35] = system: SNB-19 CNS
[36] = system: EKVX NSCLC
[37] = system: PC-3 prostate
[38] = system: LOX IMVI melanoma
[39] = system: DU-145 prostate
[40] = system: MALME-3M melanoma
[41] = system: OVCAR-5 ovarian
[42] = system: SR leukemia
[43] = system: SK-MEL-5 melanoma
[44] = system: COLO 205 colon
[45] = system: TK-10 renal
[46] = system: CAKI-1 renal
[47] = system: T-47D breast

[2H]c1nc(C)nc([2H])c1-c1cc(NC[C@@H](C)c2cccc3c(C(=O)NC)ccnc23)ncn1
GI50 [1]: > 100 µM | TGI [1]: > 100 µM | GI50 [2]: > 100 µM | TGI [2]: > 100 µM | GI50 [3]: > 100 µM | TGI [3]: > 100 µM | GI50 [4]: > 100 µM | TGI [4]: > 100 µM | GI50 [5]: > 100 µM | TGI [5]: > 100 µM | GI50 [6]: > 100 µM | TGI [6]: > 100 µM | GI50 [7]: > 100 µM | TGI [7]: > 100 µM | GI50 [8]: > 100 µM | TGI [8]: > 100 µM | GI50 [9]: > 100 µM | TGI [9]: > 100 µM | GI50 [10]: > 100 µM | TGI [10]: > 100 µM | GI50 [11]: 48.1 µM | TGI [11]: > 100 µM | GI50 [12]: > 100 µM | TGI [12]: > 100 µM | GI50 [13]: > 100 µM | TGI [13]: > 100 µM | GI50 [14]: > 100 µM | TGI [14]: > 100 µM | GI50 [15]: > 100 µM | TGI [15]: > 100 µM | GI50 [16]: > 100 µM | TGI [16]: > 100 µM | GI50 [17]: > 85.7 µM | TGI [17]: > 100 µM | GI50 [18]: > 100 µM | TGI [18]: > 100 µM | GI50 [19]: > 100 µM | TGI [19]: > 100 µM | GI50 [20]: 70.2 µM | TGI [20]: > 100 µM | GI50 [21]: > 100 µM | TGI [21]: > 100 µM | GI50 [22]: > 100 µM | TGI [22]: > 100 µM | GI50 [23]: > 100 µM | TGI [23]: > 100 µM | GI50 [24]: > 100 µM | TGI [24]: > 100 µM | GI50 [25]: > 100 µM | TGI [25]: > 100 µM | GI50 [26]: > 100 µM | TGI [26]: > 100 µM | GI50 [27]: > 100 µM | TGI [27]: > 100 µM | GI50 [28]: > 100 µM | TGI [28]: > 100 µM | GI50 [29]: > 100 µM | TGI [29]: > 100 µM | GI50 [30]: > 100 µM | TGI [30]: > 100 µM | GI50 [31]: 55.8 µM | TGI [31]: > 100 µM | GI50 [32]: > 100 µM | TGI [32]: > 100 µM | GI50 [33]: > 100 µM | TGI [33]: > 100 µM | GI50 [34]: > 72.5 µM | TGI [34]: > 100 µM | GI50 [35]: > 100 µM | TGI [35]: > 100 µM | GI50 [36]: > 100 µM | TGI [36]: > 100 µM | GI50 [37]: > 100 µM | TGI [37]: > 100 µM | GI50 [38]: > 100 µM | TGI [38]: > 100 µM | GI50 [39]: > 100 µM | TGI [39]: > 100 µM | GI50 [40]: > 100 µM | TGI [40]: > 100 µM | GI50 [41]: > 100 µM | TGI [41]: > 100 µM | GI50 [42]: 18.9 µM | TGI [42]: 50.3 µM | GI50 [43]: > 100 µM | TGI [43]: > 100 µM | GI50 [44]: > 100 µM | TGI [44]: > 100 µM | GI50 [45]: > 100 µM | TGI [45]: > 100 µM | GI50 [46]: > 100 µM | TGI [46]: > 100 µM | GI50 [47]: > 100 µM | TGI [47]: > 100 µM

CC(C)N(CCCNC(=O)Nc1ccc(C(C)(C)C)cc1)C[C@H]1O[C@@H](n2ccc3c(N)ncnc32)[C@H](O)[C@@H]1O
GI50 [1]: > 100 µM | TGI [1]: > 100 µM | GI50 [2]: > 100 µM | TGI [2]: > 100 µM | GI50 [3]: 41.5 µM | TGI [3]: > 95.1 µM | GI50 [4]: > 100 µM | TGI [4]: > 100 µM | GI50 [5]: > 100 µM | TGI [5]: > 100 µM | GI50 [6]: > 100 µM | TGI [6]: > 100 µM | GI50 [7]: > 100 µM | TGI [7]: > 100 µM | GI50 [8]: > 100 µM | TGI [8]: > 100 µM | GI50 [9]: > 100 µM | TGI [9]: > 100 µM | GI50 [10]: > 100 µM | TGI [10]: > 100 µM | GI50 [11]: > 100 µM | TGI [11]: > 100 µM | GI50 [12]: > 100 µM | TGI [12]: > 100 µM | GI50 [13]: > 63.7 µM | TGI [13]: > 100 µM | GI50 [14]: > 100 µM | TGI [14]: > 100 µM | GI50 [15]: > 100 µM | TGI [15]: > 100 µM | GI50 [16]: > 100 µM | TGI [16]: > 100 µM | GI50 [17]: 44.7 µM | TGI [17]: > 100 µM | GI50 [18]: > 100 µM | TGI [18]: > 100 µM | GI50 [19]: > 100 µM | TGI [19]: > 100 µM | GI50 [20]: 18.9 µM | TGI [20]: > 100 µM | GI50 [21]: > 100 µM | TGI [21]: > 100 µM | GI50 [22]: > 100 µM | TGI [22]: > 100 µM | GI50 [23]: > 100 µM | TGI [23]: > 100 µM | GI50 [24]: > 95.3 µM | TGI [24]: > 100 µM | GI50 [25]: > 72.4 µM | TGI [25]: > 100 µM | GI50 [26]: > 100 µM | TGI [26]: > 100 µM | GI50 [27]: > 100 µM | TGI [27]: > 100 µM | GI50 [28]: > 100 µM | TGI [28]: > 100 µM | GI50 [29]: > 100 µM | TGI [29]: > 100 µM | GI50 [30]: > 100 µM | TGI [30]: > 100 µM | GI50 [31]: > 92.8 µM | TGI [31]: > 100 µM | GI50 [32]: > 87.2 µM | TGI [32]: > 100 µM | GI50 [33]: > 100 µM | TGI [33]: > 100 µM | GI50 [34]: > 100 µM | TGI [34]: > 100 µM | GI50 [35]: > 100 µM | TGI [35]: > 100 µM | GI50 [36]: > 100 µM | TGI [36]: > 100 µM | GI50 [37]: > 100 µM | TGI [37]: > 100 µM | GI50 [38]: > 89 µM | TGI [38]: > 100 µM | GI50 [39]: > 100 µM | TGI [39]: > 100 µM | GI50 [40]: 61.6 µM | TGI [40]: > 100 µM | GI50 [41]: > 100 µM | TGI [41]: > 100 µM | GI50 [42]: > 100 µM | TGI [42]: > 100 µM | GI50 [43]: > 100 µM | TGI [43]: > 100 µM | GI50 [44]: > 100 µM | TGI [44]: > 100 µM | GI50 [45]: > 100 µM | TGI [45]: > 100 µM | GI50 [46]: > 100 µM | TGI [46]: > 100 µM | GI50 [47]: > 96.4 µM | TGI [47]: > 100 µM
